The values that follow come from patent US20120095215A1, “MEDICAL COMPOSITION FOR TREATMENT OR PROPHYLAXIS OF EYE DISEASES” (UBE INDUSTRIES, LTD., priority 2009, published 2012).

SMILES strings stand for the structures. Structures can show the parent of a compound that is named as a salt.

The target in assay [1] is T1, αvβ3 protein (Homo sapiens, UniProt P05106+P06756).
T1 construct: purchased CHEMICON CORP; CC1019
As to the kind of experiment: αvβ3 protein binding test (fluorescence polarization, FITC-Echistatin). Conditions: inhibition of binding of Echistatin and αvβ3 protein, 37° C., 30 minutes. As to the method:
The method of Davis et al. (Proc. Natl. Acad. Sci., 96(16), 9269 (1999)) was partially modified and carried out.
By using Echistatin (available from SIGMA), Fluorescein Amine Labeling Kit for Peptides and Proteins (available from PanVera Corp., P2058) and Gel Filtration of Proteins Kit (P2101, PanVera Corp.), fluorescein isothiocyanate (hereinafter abbreviated to as FITC)-Echistatin was prepared. Then, with 137 μL of Tris-buffer (10 mM Tris base, 1 mM CaCl2, 1 mM MgCl2, 1 mM MnCl2, pH 7.4) were mixed 1 μL of 200 nM FITC-Echistatin (final concentration: 1 nM) and 2 μL of […] bovine serum albumin (hereinafter abbreviated to as BSA; available from SIGMA) (final concentration: 1 mg/mL). To the mixture was added 10 μL of the test compound, then, 50 μL of 4 nM αvβ3 (CC1019, available from CHEMICON CORP.) (final concentration: 1 nM) was added to the mixture and the resulting mixture was incubated at 37° C. for 30 minutes. By measuring fluorescence polarization degrees with BEACON2000 (available from PanVera Corp.), binding of Echistatin and αvβ3 protein was evaluated. The concentration (IC50 value) of the test compound necessary for inhibiting 50% of binding of Echistatin and αvβ3 protein was calculated by using EXSAS (available from Arm Systecs Co. Ltd.).

The target of assay [2] is T2, αvβ5 protein (Homo sapiens, UniProt P06756+P18084).
T2 construct: purchased CHEMICON Corp. CC1023
T2 sequence (P06756 31-889 limits assumed): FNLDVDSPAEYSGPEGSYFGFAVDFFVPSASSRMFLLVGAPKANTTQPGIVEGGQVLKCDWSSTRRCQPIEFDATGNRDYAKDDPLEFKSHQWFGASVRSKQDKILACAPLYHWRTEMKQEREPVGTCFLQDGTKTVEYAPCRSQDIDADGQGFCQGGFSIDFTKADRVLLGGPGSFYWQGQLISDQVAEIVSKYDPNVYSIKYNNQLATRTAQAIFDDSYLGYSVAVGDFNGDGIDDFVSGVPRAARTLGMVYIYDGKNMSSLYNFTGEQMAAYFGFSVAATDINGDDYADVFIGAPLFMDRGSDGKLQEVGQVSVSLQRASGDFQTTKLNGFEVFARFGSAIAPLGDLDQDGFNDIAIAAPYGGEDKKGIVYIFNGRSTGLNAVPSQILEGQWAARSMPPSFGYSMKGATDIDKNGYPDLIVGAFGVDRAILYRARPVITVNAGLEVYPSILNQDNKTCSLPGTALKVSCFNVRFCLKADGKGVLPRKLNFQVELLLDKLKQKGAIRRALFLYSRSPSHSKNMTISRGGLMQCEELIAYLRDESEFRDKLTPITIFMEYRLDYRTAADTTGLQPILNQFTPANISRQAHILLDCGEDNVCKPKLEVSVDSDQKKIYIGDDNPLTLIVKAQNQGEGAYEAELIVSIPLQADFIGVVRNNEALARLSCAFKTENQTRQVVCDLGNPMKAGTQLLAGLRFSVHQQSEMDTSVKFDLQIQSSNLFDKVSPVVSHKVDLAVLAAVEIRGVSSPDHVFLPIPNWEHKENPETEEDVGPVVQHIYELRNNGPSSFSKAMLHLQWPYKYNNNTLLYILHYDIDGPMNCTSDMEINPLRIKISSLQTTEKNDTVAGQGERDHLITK
T2 sequence (P06756 891-1048 partner limits assumed): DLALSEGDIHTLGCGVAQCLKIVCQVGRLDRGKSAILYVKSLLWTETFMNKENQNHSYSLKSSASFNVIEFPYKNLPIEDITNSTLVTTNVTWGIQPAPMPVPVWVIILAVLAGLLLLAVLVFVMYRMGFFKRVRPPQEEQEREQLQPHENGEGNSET
T2 sequence (P18084 24-799): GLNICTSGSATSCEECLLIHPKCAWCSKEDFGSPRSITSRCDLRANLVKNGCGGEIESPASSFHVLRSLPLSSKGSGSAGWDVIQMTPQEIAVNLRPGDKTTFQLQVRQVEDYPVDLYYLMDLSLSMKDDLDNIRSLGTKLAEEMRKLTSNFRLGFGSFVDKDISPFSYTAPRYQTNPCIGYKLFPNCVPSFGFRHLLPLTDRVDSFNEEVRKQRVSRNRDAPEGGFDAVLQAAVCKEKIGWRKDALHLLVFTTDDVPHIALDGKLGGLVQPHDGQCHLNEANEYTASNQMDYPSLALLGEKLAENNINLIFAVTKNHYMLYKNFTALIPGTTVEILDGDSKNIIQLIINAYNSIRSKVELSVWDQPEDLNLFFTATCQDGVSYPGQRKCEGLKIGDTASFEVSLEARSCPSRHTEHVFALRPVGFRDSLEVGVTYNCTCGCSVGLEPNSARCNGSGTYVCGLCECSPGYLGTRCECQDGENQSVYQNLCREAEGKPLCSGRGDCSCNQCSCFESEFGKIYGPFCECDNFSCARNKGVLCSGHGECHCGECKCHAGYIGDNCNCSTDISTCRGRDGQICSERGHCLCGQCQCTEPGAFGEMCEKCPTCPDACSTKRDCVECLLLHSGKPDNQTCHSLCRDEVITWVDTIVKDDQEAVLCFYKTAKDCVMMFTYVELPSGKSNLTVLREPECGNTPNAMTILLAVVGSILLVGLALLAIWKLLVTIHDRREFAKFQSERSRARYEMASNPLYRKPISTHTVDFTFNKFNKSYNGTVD
As to the kind of experiment: αvβ5 protein binding test (Biotin-Echistatin plate assay). Conditions: inhibition of binding between Echistatin and αvβ5 protein. As to the method:
The method of C. P. Carron et al. (J. Endocrinology, 165, 587 (2000)) was partially modified and carried out.
By using Echistatin (available from Bachem) and EZ-Link NHS-Biotin Reagent (available from Pierce Biotechnology Inc.), Biotin-Echistatin was prepared. Then, αvβ5 (CC1023, available from CHEMICON Corp.) was mixed with a Tris buffer solution (20 mM tris(hydroxymethyl)aminomethane, 150 mM NaCl, 1 mM CaCl2, 1 mM MgCl2, 1 mM MnCl2, pH 7.5), the mixture was added to Nunc immunoplate Maxisoap (available from Nalge Nunc Int. Co.), and incubated at room temperature overnight. The solution was removed, a Block Ace (available from Dai Nippon Sumitomo Pharma Co., Ltd.) solution was added to the residue and the mixture was incubated at room temperature for 2 hours, then, the solution was again removed and the residue was washed with 0.05% Tween-PBS. Next, a Tris buffer solution containing 10 mg/mL of bovine serum albumin (hereinafter abbreviated to as BSA; available from SIGMA) and the test compound was added to the mixture, and the resulting mixture was incubated at room temperature for 30 minutes. […] An absorbance at 495 nm was measured by Microplate reader (Spectra Fluor, available from TECAN Group, Ltd.) to evaluate binding of Echistatin and αvβ5 protein. […]

Assay [3] relates to HUVEC (human umbilical vein endothelial cell), αvβ3 expressing cell. As to the kind of experiment: αvβ3 expressing cell adhesion test (HUVEC on human vitronectin). Format: cell-based. The settings on record: HUVEC binding to human vitronectin, 50% human serum-containing DMEM, 1 hour; read-out: αvβ3 developed cell adhesion inhibition IC50 value. As to the method:
The method of Juliano, et al. (Exp. Cell Res., 225(1), 132 (1996)) was partially modified and carried out.
Human vitronectin (available from CHEMICON CORP.) was adjusted to 10 μg/mL with phosphate buffered saline (hereinafter abbreviated to as PBS). This was apportioned on a 96-well plate (MS9586F, available from SUMIRON Co., Ltd.) with 100 μL/well, subjected to coating at room temperature for 1 hour, then, the coating solution was removed and dried. Thereafter, blocking treatment was carried out by 1.0% BSA dissolved in Dulbecco's Modified Eagle's Medium (hereinafter abbreviated to as DMEM) for 1 hour, followed by washing with PBS, and the obtained material was used for the adhesion test as a coating plate. HUVEC (human umbilical vein endothelial cell) (available from Clonetics Corp.) cultured in an endocerial cell basal medium EBM2 (available from Clonetics Corp.) containing growth factor EGM2 (available from Clonetics Corp.) and 10% fatal bovin serum (hereinafter abbreviated to as FBS) was peeled by using trypsin-ethylenediamine tetraacetic acid, washed by using PBS and recovered, and then, suspended in 50% human serum-containing DMEM to prepare a cell solution of HUVEC. To human vitronectin coating plates was added a 50% human serum-containing DMEM solution containing the HUVEC cell solution and the test compound each 50 μL/plate to start the adhesion test. […]

T1 sequence (P06756 31-889 limits assumed): as the sequence (P06756 31-889 limits assumed) above
T1 sequence (P06756 891-1048 partner limits assumed): as the sequence (P06756 891-1048 partner limits assumed) above
T1 sequence (P05106 27-788): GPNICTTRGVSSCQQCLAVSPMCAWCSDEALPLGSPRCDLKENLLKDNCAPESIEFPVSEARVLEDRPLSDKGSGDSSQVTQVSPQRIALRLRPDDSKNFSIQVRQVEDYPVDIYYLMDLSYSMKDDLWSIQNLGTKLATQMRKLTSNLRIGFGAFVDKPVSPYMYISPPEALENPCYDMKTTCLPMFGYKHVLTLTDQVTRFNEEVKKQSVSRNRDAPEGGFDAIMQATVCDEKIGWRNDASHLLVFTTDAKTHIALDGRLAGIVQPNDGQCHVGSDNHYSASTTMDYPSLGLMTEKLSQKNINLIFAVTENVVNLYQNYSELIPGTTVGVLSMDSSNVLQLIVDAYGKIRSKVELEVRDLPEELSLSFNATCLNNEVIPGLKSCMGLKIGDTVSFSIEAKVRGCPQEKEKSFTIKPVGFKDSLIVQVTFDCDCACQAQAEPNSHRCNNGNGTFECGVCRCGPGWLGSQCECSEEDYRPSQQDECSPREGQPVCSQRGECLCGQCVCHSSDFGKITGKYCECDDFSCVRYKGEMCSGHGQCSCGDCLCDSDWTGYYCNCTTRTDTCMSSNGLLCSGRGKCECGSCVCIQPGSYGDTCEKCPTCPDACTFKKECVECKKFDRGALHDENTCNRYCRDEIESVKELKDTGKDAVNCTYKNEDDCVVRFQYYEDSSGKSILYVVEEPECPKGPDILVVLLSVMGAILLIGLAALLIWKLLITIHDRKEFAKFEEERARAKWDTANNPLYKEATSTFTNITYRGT

`O=C(O)C[C@@H]1Cc2ccc(OCCCNc3ccccn3)cc2CN(CC(F)(F)F)C1=O` [Compund B, (4S)-3-oxo-8-[3-(pyridin-2-ylamino)-1-propyloxy]-2-(2,2,2-trifluoroethyl)-2,3,4,5-tetrahydro-1H-2-benzazepin-4-acetic acid, reference compound]: the IC50 in assay [1] turned out to be 2.6 nM; in assay [2] it was 1.3 nM.

In assay [1], `O=C(O)CC1Cc2ccc(OCCc3cn4c(n3)NCCN4)cc2CN(CC(F)(F)F)C1=O` (stereo not drawn) [Example 3, 3-Oxo-8-[2-(1,2,3,4-tetrahydroimidazo[1,2-b][1,2,4]triazin-6-yl)ethoxy]-2-(2,2,2-trifluoroethyl)-2,3,4,5-tetrahydro-1H-2-benzazepin-4-acetate trifluoroacetate] returned an IC50 of 1.3 nM.

As to `CNc1cccc(CCOc2ccc3c(c2)CN(CC(F)(F)F)C(=O)C(CC(=O)O)C3)n1` (racemic) [Compund A, 8-[2-[6-(methylamino)pyridin-2-yl]-1-ethoxy]-3-oxo-2-(2,2,2-trifluoroethyl)-2,3,4,5-tetrahydro-1H-2-benzazepin-4-acetic acid, reference compound], the results for the IC50 in assay [1] and in assay [3] were 7.1 nM and 161 nM, respectively.

Regarding `O=C(O)CC1Cc2ccc(OCCc3cn4c(n3)NCCC4)cc2CN(CC(F)(F)F)C1=O` (stereo not drawn) [Example 2, 3-oxo-8-[2-(5,6,7,8-tetrahydroimidazo[1,2-a]pyrimidin-2-yl)ethoxy]-2-(2,2,2-trifluoroethyl)-2,3,4,5-tetrahydro-1H-2-benzazepin-4-acetate trifluoroacetate], the concentration for half-maximal inhibition (IC50) is 1.2 nM in assay [1] and 61 nM in assay [3]. As to `O=C(O)C[C@@H]1Cc2ccc(OCCc3cn4c(n3)NCCC4)cc2CN(CC(F)(F)F)C1=O` [Example 4, (4S)-3-oxo-8-[2-(5,6,7,8-tetrahydroimidazo[1,2-a]pyrimidin-2-yl)ethoxy]-2-(2,2,2-trifluoroethyl)-2,3,4,5-tetrahydro-1H-2-benzazepin-4-acetic acid], the IC50 in assay [1] amounted to 0.6 nM; in assay [2] it was 0.2 nM.

The term IC50 denotes the concentration at which inhibition is half-maximal.
